According to ChEMBL document CHEMBL1151791, “Derivatives of 1,4-bis(3-hydroxycarbonyl-4-hydroxyl)styrylbenzene as PTP1B inhibitors with hypoglycemic activity” (Bioorg Med Chem, 2008):
Calls of active or inactive are those of the source. The rule behind the calls is not given here.

Experiments:
[1] = target: T1, Tyrosine-protein phosphatase non-receptor type 1 (Homo sapiens, UniProt P18031); experiment: Inhibition of PTP1B
T1 sequence (P18031 whole entry): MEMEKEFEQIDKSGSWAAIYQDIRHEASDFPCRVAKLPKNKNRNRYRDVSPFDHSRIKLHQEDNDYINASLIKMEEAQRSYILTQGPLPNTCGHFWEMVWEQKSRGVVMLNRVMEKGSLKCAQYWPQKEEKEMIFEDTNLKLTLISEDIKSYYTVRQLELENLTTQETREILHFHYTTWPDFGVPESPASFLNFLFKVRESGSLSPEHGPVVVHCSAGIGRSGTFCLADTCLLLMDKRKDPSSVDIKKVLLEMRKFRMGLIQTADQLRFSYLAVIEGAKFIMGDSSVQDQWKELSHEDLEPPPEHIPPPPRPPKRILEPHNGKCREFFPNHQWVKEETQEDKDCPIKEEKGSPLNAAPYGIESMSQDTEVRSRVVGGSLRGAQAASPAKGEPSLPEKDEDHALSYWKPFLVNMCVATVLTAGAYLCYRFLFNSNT

[2] = target: T2, Tyrosine-protein phosphatase non-receptor type 2 (Homo sapiens, UniProt P17706); experiment: Inhibition of TC-PTP
T2 sequence (P17706 whole entry): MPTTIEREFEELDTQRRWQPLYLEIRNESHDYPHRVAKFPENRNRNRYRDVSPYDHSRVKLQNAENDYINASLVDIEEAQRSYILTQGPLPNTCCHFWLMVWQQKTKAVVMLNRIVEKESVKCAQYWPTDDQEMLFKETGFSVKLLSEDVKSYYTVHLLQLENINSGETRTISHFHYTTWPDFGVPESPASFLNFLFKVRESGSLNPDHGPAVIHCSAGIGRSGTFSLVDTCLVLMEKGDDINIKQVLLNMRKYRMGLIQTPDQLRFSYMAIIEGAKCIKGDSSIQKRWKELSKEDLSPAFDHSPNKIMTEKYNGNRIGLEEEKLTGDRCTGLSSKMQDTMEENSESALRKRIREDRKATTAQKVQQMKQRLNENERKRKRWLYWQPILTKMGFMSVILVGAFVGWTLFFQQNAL

[3] = Inhibition of PTP LAR-D1
[4] = target: Tyrosine-protein phosphatase non-receptor type 6 (Homo sapiens, UniProt P29350); experiment: Inhibition of PTP SHP1
Tyrosine-protein phosphatase non-receptor type 6, sequence (P29350 whole entry): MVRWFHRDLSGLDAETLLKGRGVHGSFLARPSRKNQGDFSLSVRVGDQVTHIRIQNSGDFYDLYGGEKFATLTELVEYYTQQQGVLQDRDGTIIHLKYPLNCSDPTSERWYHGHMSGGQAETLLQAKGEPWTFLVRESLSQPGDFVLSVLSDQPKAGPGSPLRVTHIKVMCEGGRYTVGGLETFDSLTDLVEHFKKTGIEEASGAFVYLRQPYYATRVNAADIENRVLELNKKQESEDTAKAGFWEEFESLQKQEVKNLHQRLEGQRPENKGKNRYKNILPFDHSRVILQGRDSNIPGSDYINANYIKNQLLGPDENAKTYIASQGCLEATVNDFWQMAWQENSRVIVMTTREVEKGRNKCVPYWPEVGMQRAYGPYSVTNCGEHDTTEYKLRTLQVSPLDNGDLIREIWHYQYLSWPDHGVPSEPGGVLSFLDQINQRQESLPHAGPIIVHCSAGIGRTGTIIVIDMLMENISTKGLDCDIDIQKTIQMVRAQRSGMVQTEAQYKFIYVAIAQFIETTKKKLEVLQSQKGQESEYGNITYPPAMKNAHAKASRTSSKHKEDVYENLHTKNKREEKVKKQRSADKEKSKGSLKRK

[5] = Inhibition of PTP YOP
[6] = Inhibition of YPTP1
Mus musculus [7] = experiment: Toxicity in liver of high fat diet fed C57BL/6J Jms Slc mouse at 160 mg/day/kg for 4 weeks administered with diet; assay type: organism-based; conditions: in vivo, po, 672 h
Mus musculus [8] = experiment: Toxicity in kidney of high fat diet fed C57BL/6J Jms Slc mouse at 160 mg/day/kg for 4 weeks administered with diet; assay type: organism-based; conditions: in vivo, po, 672 h
Mus musculus [9] = experiment: Toxicity in lungs of high fat diet fed mouse C57BL/6J Jms Slc at 160 mg/day/kg for 4 weeks administered with diet; assay type: organism-based, Lung; conditions: in vivo, po, 672 h
Mus musculus [10] = experiment: Reduction in blood glucose level in high fat diet fed C57BL/6J Jms Slc mouse at 160 mg/day/kg administered with diet measured after 27 days; assay type: functional, organism-based
Mus musculus [11] = experiment: Normalization of blood glucose level in high fat diet fed C57BL/6J Jms Slc mouse at 160 mg/day/kg administered with diet; assay type: functional, organism-based

For `O=C(O)c1cc(/C=C/c2ccc(/C=C/c3cc(C(=O)O)c(O)c(-c4ccco4)c3)cc2)cc(-c2ccco2)c1O`, the IC50 [1] was 0.53 µM, the IC50 [2] was 8 µM and the IC50 [3] was > 200 µM. It also gave an IC50 [4] of 6 µM, an IC50 [5] of 5 µM and an IC50 [6] of 7 µM.
For `O=C(O)c1cc(/C=C/c2ccccc2)ccc1O`, the IC50 [1] was 34 µM, the IC50 [2] was 234 µM and the IC50 [3] was > 2000 µM. The IC50 [4] was 126 µM, the IC50 [5] was 61 µM and the IC50 [6] was 114 µM.
In the case of `O=C(O)c1cc(/C=C/c2ccc(/C=C/c3ccc(O)c(C(=O)O)c3)cc2)ccc1O`, the IC50 [1] is reported as 5 µM, the IC50 [2] is reported as 27 µM and the IC50 [3] is reported as 413 µM. For the same compound, the IC50 [4] was 19 µM, the IC50 [5] was 13 µM and the IC50 [6] was 20 µM.
Work on `O=C(O)c1cc(/C=C/c2cc(C(=O)O)c(O)c(-c3ccccc3)c2)ccc1O` yielded an IC50 [1] of 125 µM.
For `O=C(O)c1cc(/C=C/c2ccc(/C=C/c3cc(Br)c(O)c(C(=O)O)c3)cc2)cc(Br)c1O`, the IC50 [1] was 3 µM, the IC50 [2] was 37 µM and the IC50 [3] was > 300 µM. It also gave an IC50 [4] of 15 µM, an IC50 [5] of 10 µM and an IC50 [6] of 13 µM. The Activity (Mus musculus [7]) was “Non-toxic”, the Activity (Mus musculus [8]) was “Non-toxic” and the Activity (Mus musculus [9]) was “Non-toxic”. The Activity (Mus musculus [10]) was “Active” and the Activity (Mus musculus [11]) was “Active”.
In the case of `COc1c(C(=O)O)cc(/C=C/c2ccc(C(=O)O)c(O)c2)cc1-c1ccco1`, the IC50 [1] is reported as 194 µM.
For `O=C(O)c1cc(/C=C/c2ccccc2)cc(Br)c1O`, the IC50 [1] was 30 µM, the IC50 [2] was 173 µM and the IC50 [3] was > 1000 µM. It also gave an IC50 [4] of 140 µM, an IC50 [5] of 91 µM and an IC50 [6] of 153 µM.
For `O=C(O)c1cc(/C=C/c2ccccc2)cc(-c2ccccc2)c1O`, the IC50 [1] was 13 µM, the IC50 [2] was 173 µM and the IC50 [3] was > 1000 µM. The IC50 [4] was 78 µM, the IC50 [5] was 44 µM and the IC50 [6] was 59 µM.
`O=C(O)c1ccc(/C=C/c2cc(Br)c(O)c(C(=O)O)c2)cc1O` gave an IC50 [1] of 64 µM.
`COc1cc(/C=C/c2cc(Br)c(O)c(C(=O)O)c2)ccc1/C=C/c1cc(Br)c(O)c(C(=O)O)c1` gave an IC50 [1] of 6 µM, an IC50 [2] of 32 µM and an IC50 [3] of 420 µM. The IC50 [4] was 10 µM, the IC50 [5] was 12 µM and the IC50 [6] was 21 µM.
With `O=C(O)c1ccc(/C=C/c2ccc(O)c(C(=O)O)c2)cc1O` the IC50 [1] was 32 µM, the IC50 [2] was 567 µM and the IC50 [3] was > 2000 µM. It also gave an IC50 [4] of 231 µM, an IC50 [5] of 175 µM and an IC50 [6] of 370 µM.
In the case of `O=C(O)c1cc(Cc2cc(C(=O)O)c(O)c(-c3ccccc3)c2)cc(-c2ccccc2)c1O`, the IC50 [3] is reported as > 2000 µM and the IC50 [6] is reported as 234 µM.
With `O=C(O)c1cc(-c2ccccc2)cc(Cc2cc(-c3ccccc3)cc(C(=O)O)c2O)c1O` the IC50 [3] was > 2000 µM and the IC50 [6] was 86 µM.
With `Oc1ccc(/C=C/c2cc(O)cc(O)c2)cc1` [RESVERATROL] the IC50 [1] was > 1000 µM.
Work on `COc1cc(/C=C/c2cc(C(=O)O)c(O)c(-c3ccco3)c2)ccc1/C=C/c1cc(C(=O)O)c(O)c(-c2ccco2)c1` yielded an IC50 [1] of 4 µM, an IC50 [2] of 11 µM and an IC50 [3] of 162 µM. It also gave an IC50 [4] of 6 µM, an IC50 [5] of 5 µM and an IC50 [6] of 10 µM.
